Measurements as given in PMC3222276 (ACS chemical biology, 2010).

How the values were obtained:
cathepsin L = cathepsin L (Homo sapiens, UniProt P07711); experiment: Inhibition of recombinant cathepsin L; conditions: read-out: Cathepsin L IC50; enzyme 100nM, substrate 10μM, pH 6.25, 30min
cathepsin B = cathepsin B (Homo sapiens, UniProt P07858); experiment: Inhibition of recombinant cathepsin B; conditions: read-out: Cathepsin B IC50; enzyme 360nM, substrate 50μM, pH 6.25, 30min

Sequence of cathepsin L (P07711 114-333, species assumed): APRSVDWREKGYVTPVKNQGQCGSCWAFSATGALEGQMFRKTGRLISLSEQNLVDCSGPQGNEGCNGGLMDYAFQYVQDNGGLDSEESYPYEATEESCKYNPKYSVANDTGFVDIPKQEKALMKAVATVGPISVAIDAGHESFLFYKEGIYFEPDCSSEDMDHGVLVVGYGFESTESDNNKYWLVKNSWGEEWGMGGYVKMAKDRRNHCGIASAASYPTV

JPM-OEt
IC50 (cathepsin L): 2980 nM
IC50 (cathepsin B): 780 nM
